Measured values from ChEMBL document CHEMBL4308841, “Synthesis, in vitro antiproliferative activity, and kinase inhibitory effects of pyrazole-containing diarylureas and diarylamides” (Eur J Med Chem, 2018).

Legend:
HT-29 [1] = test: Growth inhibition of human HT-29 cells assessed as cell growth at 100 uM incubated for 48 hrs by sulforhodamine B assay relative to control; assay type: functional; details: HT-29, 48 h, read-out: Activity
RXF 393 = test: Growth inhibition of human RXF393 cells assessed as cell growth at 100 uM incubated for 48 hrs by sulforhodamine B assay relative to control; assay type: functional; details: RXF 393, 48 h, read-out: Activity
NCI/ADR-RES = test: Growth inhibition of human NCI/ADR-RES cells assessed as cell growth at 1 uM incubated for 48 hrs by sulforhodamine B assay relative to control; assay type: functional; details: read-out: Activity
SNB-75 = test: Growth inhibition of human SNB75 cells assessed as cell growth at 0.1 uM incubated for 48 hrs by sulforhodamine B assay relative to control; assay type: functional; details: SNB-75, 48 h, read-out: Activity
SN12C = test: Growth inhibition of human SN12C cells assessed as cell growth at 0.1 uM incubated for 48 hrs by sulforhodamine B assay relative to control; assay type: functional; details: read-out: Activity
T47D = test: Growth inhibition of human T47D cells assessed as cell growth at 0.1 uM incubated for 48 hrs by sulforhodamine B assay relative to control; assay type: functional; details: read-out: Activity
NCI-H322M [2] = test: Growth inhibition of human NCI-H322M cells assessed as cell growth at 100 uM incubated for 48 hrs by sulforhodamine B assay relative to control; assay type: functional; details: read-out: Activity
OVCAR-5 = test: Growth inhibition of human OVCAR5 cells assessed as cell growth at 1 uM incubated for 48 hrs by sulforhodamine B assay relative to control; assay type: functional; details: OVCAR-5, 48 h, read-out: Activity
A549 = test: Growth inhibition of human A549/ATCC cells assessed as cell growth at 1 uM incubated for 48 hrs by sulforhodamine B assay relative to control; assay type: functional; details: A549, 48 h, read-out: Activity
HCC 2998 [3] = test: Growth inhibition of human HCC2998 cells incubated for 48 hrs by sulforhodamine B assay; assay type: functional, cell-based; details: HCC 2998, 48 h
Hs-578T [4] = test: Growth inhibition of human Hs578T cells incubated for 48 hrs by sulforhodamine B assay; assay type: functional, cell-based
SNB-19 = test: Growth inhibition of human SNB19 cells incubated for 48 hrs by sulforhodamine B assay; assay type: functional, cell-based; details: SNB-19, 48 h
HT-29 [5] = test: Growth inhibition of human HT-29 cells assessed as cell growth at 1 uM incubated for 48 hrs by sulforhodamine B assay relative to control; assay type: functional; details: HT-29, 48 h, read-out: Activity
OVCAR-4 = test: Growth inhibition of human OVCAR4 cells assessed as cell growth at 0.01 uM incubated for 48 hrs by sulforhodamine B assay relative to control; assay type: functional; details: OVCAR-4, 48 h, read-out: Activity
SK-MEL-28 = test: Growth inhibition of human SK-MEL-28 cells assessed as cell growth at 1 uM incubated for 48 hrs by sulforhodamine B assay relative to control; assay type: functional; details: SK-MEL-28, 48 h, read-out: Activity
HCC 2998 [6] = test: Growth inhibition of human HCC2998 cells assessed as cell growth at 0.01 uM incubated for 48 hrs by sulforhodamine B assay relative to control; assay type: functional; details: HCC 2998, 48 h, read-out: Activity
UACC-257 = test: Growth inhibition of human UACC257 cells assessed as cell growth at 1 uM incubated for 48 hrs by sulforhodamine B assay relative to control; assay type: functional; details: UACC-257, 48 h, read-out: Activity
NCI-H322M [7] = test: Growth inhibition of human NCI-H322M cells assessed as cell growth at 1 uM incubated for 48 hrs by sulforhodamine B assay relative to control; assay type: functional; details: read-out: Activity
MDA-MB-468 = test: Growth inhibition of human MDA-MB-468 cells assessed as cell growth at 100 uM incubated for 48 hrs by sulforhodamine B assay relative to control; assay type: functional; details: MDA-MB-468, 48 h, read-out: Activity
MDA-MB-435 = test: Growth inhibition of human MDA-MB-435 cells incubated for 48 hrs by sulforhodamine B assay; assay type: functional, cell-based; details: MDA-MB-435, 48 h
UACC-62 = test: Growth inhibition of human UACC62 cells incubated for 48 hrs by sulforhodamine B assay; assay type: functional, cell-based; details: UACC-62, 48 h
SK-MEL-2 = test: Growth inhibition of human SK-MEL-2 cells assessed as cell growth at 0.01 uM incubated for 48 hrs by sulforhodamine B assay relative to control; assay type: functional; details: SK-MEL-2, 48 h, read-out: Activity
HOP-62 = test: Growth inhibition of human HOP62 cells assessed as cell growth at 0.01 uM incubated for 48 hrs by sulforhodamine B assay relative to control; assay type: functional; details: HOP-62, 48 h, read-out: Activity
LOX IMVI [8] = test: Growth inhibition of human LOXIMVI cells assessed as cell growth at 0.01 uM incubated for 48 hrs by sulforhodamine B assay relative to control; assay type: functional; details: read-out: Activity
UO-31 = test: Growth inhibition of human UO31 cells assessed as cell growth at 100 uM incubated for 48 hrs by sulforhodamine B assay relative to control; assay type: functional; details: UO-31, 48 h, read-out: Activity
Hs-578T [9] = test: Growth inhibition of human Hs578T cells assessed as cell growth at 100 uM incubated for 48 hrs by sulforhodamine B assay relative to control; assay type: functional; details: read-out: Activity
LOX IMVI [10] = test: Growth inhibition of human LOXIMVI cells assessed as cell growth at 100 uM incubated for 48 hrs by sulforhodamine B assay relative to control; assay type: functional; details: read-out: Activity
NCI-H322M [11] = test: Growth inhibition of human NCI-H322M cells assessed as cell growth at 0.1 uM incubated for 48 hrs by sulforhodamine B assay relative to control; assay type: functional; details: read-out: Activity
COLO 205 = test: Growth inhibition of human COLO205 cells assessed as cell growth at 0.01 uM incubated for 48 hrs by sulforhodamine B assay relative to control; assay type: functional; details: COLO 205, 48 h, read-out: Activity
A498 = test: Growth inhibition of human A498 cells incubated for 48 hrs by sulforhodamine B assay; assay type: functional, cell-based; details: A498, 48 h
[12] = read-out: LC50 (the source's name)
[13] = read-out: pLC50 (the source's name) (converted)

O=C(Nc1cccc(-n2cc(-c3ccncc3)c(-c3cc(O)cc(Cl)c3)n2)c1)c1cc(C(F)(F)F)cc(C(F)(F)F)c1
growth at 100 µM (HT-29 [1]): -5% | growth at 100 µM (RXF 393): -50% | growth at 1 µM (NCI/ADR-RES): 94% | growth at 0.1 µM (SNB-75): 87% | growth at 0.1 µM (SN12C): 98% | growth at 0.1 µM (T47D): 93% | growth at 100 µM (NCI-H322M [2]): 13% | growth at 1 µM (OVCAR-5): 99% | growth at 1 µM (A549): 74% | GI50 (HCC 2998 [3]; read-out: GI50): 3.12 µM | CC50 (HCC 2998 [3]; [12]): > 100 µM | TGI (HCC 2998 [3]; read-out: TGI): 11.6 µM | GI50 (HCC 2998 [3]; read-out: pGI50 (converted)): 3.09 µM | CC50 (HCC 2998 [3]; [13]): > 100 µM | TGI (HCC 2998 [3]; read-out: pTGI (converted)): 11.7 µM | GI50 (Hs-578T [4]; read-out: GI50): 6.38 µM | CC50 (Hs-578T [4]; [12]): > 100 µM | TGI (Hs-578T [4]; read-out: TGI): > 100 µM | GI50 (Hs-578T [4]; read-out: pGI50 (converted)): 6.31 µM | CC50 (Hs-578T [4]; [13]): > 100 µM | TGI (Hs-578T [4]; read-out: pTGI (converted)): > 100 µM | GI50 (SNB-19; read-out: GI50): 7.03 µM | CC50 (SNB-19; [12]): > 100 µM | TGI (SNB-19; read-out: TGI): > 100 µM | GI50 (SNB-19; read-out: pGI50 (converted)): 7.08 µM | CC50 (SNB-19; [13]): > 100 µM | TGI (SNB-19; read-out: pTGI (converted)): > 100 µM | growth at 1 µM (HT-29 [5]): 79% | growth at 0.01 µM (OVCAR-4): 96% | growth at 1 µM (SK-MEL-28): 55% | growth at 0.01 µM (HCC 2998 [6]): 94% | growth at 1 µM (UACC-257): 92% | growth at 1 µM (NCI-H322M [7]): 90% | growth at 100 µM (MDA-MB-468): 2% | GI50 (MDA-MB-435; read-out: GI50): 3.18 µM | LC50 (MDA-MB-435; read-out: LC50): > 100 µM | TGI (MDA-MB-435; read-out: TGI): > 100 µM | GI50 (MDA-MB-435; read-out: pGI50 (converted)): 3.16 µM | LC50 (MDA-MB-435; read-out: pLC50 (converted)): > 100 µM | TGI (MDA-MB-435; read-out: pTGI (converted)): > 100 µM | IC50 (UACC-62): 3.79 µM | GI50 (UACC-62; read-out: GI50): 3.79 µM | CC50 (UACC-62; [12]): > 100 µM | TGI (UACC-62; read-out: TGI): 22.4 µM | GI50 (UACC-62; read-out: pGI50 (converted)): 3.8 µM | CC50 (UACC-62; [13]): > 100 µM | TGI (UACC-62; read-out: pTGI (converted)): 28.2 µM | growth at 0.01 µM (SK-MEL-2): 95% | growth at 0.01 µM (HOP-62): 103% | growth at 0.01 µM (LOX IMVI [8]): 101% | growth at 100 µM (UO-31): 13% | growth at 100 µM (Hs-578T [9]): 34% | growth at 100 µM (LOX IMVI [10]): -41% | growth at 0.1 µM (NCI-H322M [11]): 90% | growth at 0.01 µM (COLO 205): 102% | GI50 (A498; read-out: GI50): 4.75 µM | CC50 (A498; [12]): > 100 µM | TGI (A498; read-out: TGI): 90.8 µM | GI50 (A498; read-out: pGI50 (converted)): 4.79 µM | CC50 (A498; [13]): > 100 µM | TGI (A498; read-out: pTGI (converted)): 91.2 µM
